The source of these data is patent US9976141B2, “Compositions and methods for inhibiting gene expression of Hif2alpha” (Arrowhead Madison Inc., priority 2015, dated 2018).

The first series has as its system human (tumor) Hif2α (EPAS1) mRNA. Nature of the series: Hif2α knockdown in orthotopic RCC tumor bearing mice, single injection of RNAi trigger-delivery polymer conjugate, RT-qPCR (Table 7). In kind it is in vivo. The conditions noted are these: RNAi trigger 50 μg, polymer 064 125 μg; single tail vein injection; relative to isotonic glucose. Put shortly:
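A single intravenous dose of Hif2α RNAi trigger–delivery polymer conjugate, or isotonic glucose vehicle, was given to nude mice with subcapsular A498-SEAP renal tumours (about 5–6 weeks old). At the indicated time, tumour RNA was assayed by biplex TaqMan qPCR against CycA, and relative expression was calculated by ΔΔCT versus vehicle.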
Turning to “AD02735 (antisense AUUCAUGAAAUCGUUACGUUG; sense ACGUAACGAUUUCAUGAAUT; Hif2alpha RNAi agent antisense strand; modified_base 2,4,6,8,10,14,16,18 /mod_base = “2′-deoxy-2′-fluoro corresponding nucleoside”; modified_base 1,3,5,7,9,11,12,13,15,17,19,20,21 /mod_base = “2′-O-methyl corresponding nucleoside”; modified_base 2,3,20,21 /mod_base = “5′-phosphorothioate corresponding nucleotide”; Hif2alpha RNAi agent sense strand; modified_base 3,5,7,8,9,13,15,17 /mod_base = “2′-deoxy-2′-fluoro corresponding nucleoside”; modified_base 1,2,4,6,10,11,12,14,16,18,19 /mod_base = “2′-O-methyl corresponding nucleoside”; modified_base 20 /mod_base = “3′-3′-linked nucleotide”; modi)”, the “Relative Expression day 4 (Hif2α mRNA in kidney tumor)” value is given as 0.144.
Take “AD02857 (antisense UUUCAUGAAAUCGUUACGUUG; sense ACGUAACGAUUUCAUGAAAT; Hif2alpha RNAi agent antisense strand; modified_base 2,4,6,8,10,14 /mod_base = “2′-deoxy-2′-fluoro corresponding nucleoside”; modified_base 1,3,5,7,9,11,12,13,15,16,17,18,19,20,21 /mod_base = “2′-O-methyl corresponding nucleoside”; modified_base 2,3,20,21 /mod_base = “5′-phosphorothioate corresponding nucleotide”; Hif2alpha RNAi agent sense strand; modified_base 7,8,9 /mod_base = “2′-deoxy-2′-fluoro corresponding nucleoside”; modified_base 1,2,3,4,5,6,10,11,12,13,14,15,16,17,18,19 /mod_base = “2′-O-methyl corresponding nucleoside”; modified_base 20 /mod_base = “3′-3′-linked nucleotide”; modi)”: the “Relative Expression day 4 (Hif2α mRNA in kidney tumor)” value turned out to be 0.192.
As to “AD02858 (antisense UUUCAUGAAAUCGUUACGUUG; sense ACGUAACGAUUUCAUGAAAT; Hif2alpha RNAi agent antisense strand; modified_base 2,3,4,8,10,14 /mod_base = “2′-deoxy-2′-fluoro corresponding nucleoside”; modified_base 1,5,6,7,9,11,12,13,15,16,17,18,19,20,21 /mod_base = “2′-O-methyl corresponding nucleoside”; modified_base 2,3,20,21 /mod_base = “5′-phosphorothioate corresponding nucleotide”; Hif2alpha RNAi agent sense strand; modified_base 7,8,9 /mod_base = “2′-deoxy-2′-fluoro corresponding nucleoside”; modified_base 1,2,3,4,5,6,10,11,12,13,14,15,16,17,18,19 /mod_base = “2′-O-methyl corresponding nucleoside”; modified_base 20 /mod_base = “3′-3′-linked nucleotide”; modi)”, the “Relative Expression day 4 (Hif2α mRNA in kidney tumor)” value is 0.192.
Still for that read-out and setting: to “AD02859 (antisense UUUCAUGAAAUCGUUACGUUG; sense ACGUAACGAUUUCAUGAAAT; Hif2alpha RNAi agent antisense strand; modified_base 2,4,6,8,14 /mod_base = “2′-deoxy-2′-fluoro corresponding nucleoside”; modified_base 1,3,5,7,9,10,11,12,13,15,16,17,18,19,20,21 /mod_base = “2′-O-methyl corresponding nucleoside”; modified_base 2,3,20,21 /mod_base = “5′-phosphorothioate corresponding nucleotide”; Hif2alpha RNAi agent sense strand; modified_base 7,8,9 /mod_base = “2′-deoxy-2′-fluoro corresponding nucleoside”; modified_base 1,2,3,4,5,6,10,11,12,13,14,15,16,17,18,19 /mod_base = “2′-O-methyl corresponding nucleoside”; modified_base 20 /mod_base = “3′-3′-linked nucleotide”; modi)” belongs 0.214; to “AD02860 (antisense UUUCAUGAAAUCGUUACGUUG; sense ACGUAACGAUUUCAUGAAAT; Hif2alpha RNAi agent antisense strand; modified_base 2,3,8,10,14 /mod_base = “2′-deoxy-2′-fluoro corresponding nucleoside”; modified_base 1,4,5,6,7,9,11,12,13,15,16,17,18,19,20,21 /mod_base = “2′-O-methyl corresponding nucleoside”; modified_base 2,3,20,21 /mod_base = “5′-phosphorothioate corresponding nucleotide”; Hif2alpha RNAi agent sense strand; modified_base 7,8,9 /mod_base = “2′-deoxy-2′-fluoro corresponding nucleoside”; modified_base 1,2,3,4,5,6,10,11,12,13,14,15,16,17,18,19 /mod_base = “2′-O-methyl corresponding nucleoside”; modified_base 20 /mod_base = “3′-3′-linked nucleotide”; modi)”, 0.165.
“AD02861 (antisense UUUCAUGAAAUCGUUACGUUG; sense UAUACGUAACGAUUUCAUGAAAT; Hif2alpha RNAi agent antisense strand; modified_base 2,4,6,8,10,14 /mod_base = “2′-deoxy-2′-fluoro corresponding nucleoside”; modified_base 1,3,5,7,9,11,12,13,15,16,17,18,19,20,21 /mod_base = “2′-O-methyl corresponding nucleoside”; modified_base 2,3,20,21 /mod_base = “5′-phosphorothioate corresponding nucleotide”; Hif2alpha RNAi agent sense strand; modified_base 2 modified base = “2′-hydroxy corresponding nucleoside”; modified_base 10,11,12 /mod_base = “2′-deoxy-2′-fluoro corresponding nucleoside”; modified_base 1,3,4,5,6,7,8,9,13,14,15,16,17,18,19,20,21,22 /mod_base = “2′-O-methyl correspon)”: the “Relative Expression day 4 (Hif2α mRNA in kidney tumor)” value worked out at 0.103.
Still for that read-out and setting: to “AD02862 (antisense AUUCAUGAAAUCGUUACGUUG; sense UAUACGUAACGAUUUCAUGAAUT; Hif2alpha RNAi agent antisense strand; modified_base 2,4,6,8,10,14,16,18 /mod_base = “2′-deoxy-2′-fluoro corresponding nucleoside”; modified_base 1,3,5,7,9,11,12,13,15,17,19,20,21 /mod_base = “2′-O-methyl corresponding nucleoside”; modified_base 2,3,20,21 /mod_base = “5′-phosphorothioate corresponding nucleotide”; Hif2alpha RNAi agent sense strand; modified_base 2 modified base = “2′-hydroxy corresponding nucleoside”; modified_base 6,8,10,11,12,16,18,20 /mod_base = “2′-deoxy-2′-fluoro corresponding nucleoside”; modified_base 1,3,4,5,7,9,13,14,15,17,19,21,22 /mod_base = “2′-O-methyl correspon)” belongs 0.093; to “AD02873 (antisense UUUCAUGAAAUCGUUACGUUG; sense UAUACGUAACGAUUUCAUGAAAT; Hif2alpha RNAi agent antisense strand; modified_base 2,4,6,8,10,14,16,18 /mod_base = “2′-deoxy-2′-fluoro corresponding nucleoside”; modified_base 1,3,5,7,9,11,12,13,15,17,19,20,21 /mod_base = “2′-O-methyl corresponding nucleoside”; modified_base 2,3,20,21 /mod_base = “5′-phosphorothioate corresponding nucleotide”; Hif2alpha RNAi agent sense strand; modified_base 2 modified base = “2′-hydroxy corresponding nucleoside”; modified_base 6,8,10,11,12,16,18,20 /mod_base = “2′-deoxy-2′-fluoro corresponding nucleoside”; modified_base 1,3,4,5,7,9,13,14,15,17,19,21,22 /mod_base = “2′-O-methyl correspon)”, 0.079.

Still in this series, the particulars now being: RNAi trigger 75 μg, polymer 064 187.5 μg; single tail vein injection; relative to isotonic glucose.
As to “AD02734 (antisense UUUCAUGAAAUCGUUACGUUG; sense ACGUAACGAUUUCAUGAAAT; Hif2alpha RNAi agent antisense strand; modified_base 2,4,6,8 /mod_base = “2′-deoxy-2′-fluoro corresponding nucleoside”; modified_base 1,3,5,7,9,10,11,12,13,14,15,16,17,18,19,20,21 /mod_base = “2′-O-methyl corresponding nucleoside”; modified_base 2,3,20,21 /mod_base = “5′-phosphorothioate corresponding nucleotide”; Hif2alpha RNAi agent sense strand; modified_base 7,9 /mod_base = “2′-deoxy-2′-fluoro corresponding nucleoside”; modified_base 1,2,3,4,5,6,8,10,11,12,13,14,15,16,17,18,19 /mod_base = “2′-O-methyl corresponding nucleoside”; modified_base 20 /mod_base = “3′-3′-linked nucleotide”; modi)”, the “Relative Expression day 4 (Hif2α mRNA in kidney tumor)” value came to 0.262.
